# Assays:
# HeLa = test: Cytotoxicity against human HeLa S3 cells; format: functional, cell-based
# HepG2 = test: Growth inhibition of human HepG2 cells; format: functional
# [1] = Cleavage of thiol-mediated supercoiled pGL2 basic DNA assessed as number of strand breaks per plasmid at 150 uM in presence of 100 ug/ml catalase
# [2] = Cleavage of supercoiled pGL2 basic DNA assessed as number of strand breaks per plasmid at 150 uM in presence of thiol
# [3] = Cleavage of thiol-mediated supercoiled pGL2 basic DNA assessed as number of strand breaks per plasmid at 150 uM in presence of 1 M methanol
# [4] = Cleavage of thiol-mediated supercoiled pGL2 basic DNA assessed as nicked open circular form DNA level at 150 uM in presence 50 ug/ml superoxide dismutase
# [5] = Cleavage of thiol-mediated supercoiled pGL2 basic DNA assessed as number of strand breaks per plasmid at 150 uM in presence of 10 mM diethylenetriaminepentaacetic acid
# [6] = Cleavage of thiol-mediated supercoiled pGL2 basic DNA assessed as number of strand breaks per plasmid at 150 uM in presence of 1 M DMSO
# [7] = Cleavage of supercoiled pGL2 basic DNA assessed as nicked open circular form DNA level at 150 uM in presence of thiol
# [8] = Cleavage of thiol-mediated supercoiled pGL2 basic DNA assessed as number of strand breaks per plasmid at 150 uM in presence of 10 mM desferal
# [9] = Cleavage of supercoiled pGL2 basic DNA assessed as nicked open circular form DNA level at 150 uM
# [10] = Cleavage of thiol-mediated supercoiled pGL2 basic DNA assessed as nicked open circular form DNA level at 150 uM in presence 10 mM diethylenetriaminepentaacetic acid
# [11] = Cleavage of thiol-mediated supercoiled pGL2 basic DNA assessed as nicked open circular form DNA level at 150 uM in presence 100 ug/ml catalase
# [12] = Cleavage of supercoiled pGL2 basic DNA assessed as number of strand breaks per plasmid at 150 uM
# [13] = Cleavage of thiol-mediated supercoiled pGL2 basic DNA assessed as nicked open circular form DNA level at 150 uM in presence 10 mM desferal
# [14] = Cleavage of thiol-mediated supercoiled pGL2 basic DNA assessed as nicked open circular form DNA level at 150 uM in presence […]
# [15] = Cleavage of thiol-mediated supercoiled pGL2 basic DNA assessed as number of strand breaks per plasmid at 150 uM in presence of 1 M ethanol
# [16] = Cleavage of thiol-mediated supercoiled pGL2 basic DNA assessed as nicked open circular form DNA level at 150 uM in presence 1 M methanol
# [17] = Cleavage of thiol-mediated supercoiled pGL2 basic DNA assessed as nicked open circular form DNA level at 150 uM in presence 100 ug/ml superoxide dismutase
# [18] = Cleavage of thiol-mediated supercoiled pGL2 basic DNA assessed as nicked open circular form DNA level at 150 uM in presence 1 M ethanol
compound,measurement,setting,value
C/C1=C\[C@@H](O)C(=O)/C=C/C=C\c2csc(n2)[C@@H](C)NC(=O)C[C@@]2(CC1)[S+]([O-])SC(=O)[C@]2(C)O (stereo partly specified) [LEINAMYCIN],IC50,HeLa,0.027 µM
C/C1=C\[C@@H](O)C(=O)/C=C/C=C\c2csc(n2)[C@@H](C)NC(=O)C[C@@]2(CC1)SSC(=O)[C@]2(C)O,IC50,HeLa,4 µM
BLEOMYCIN,GI50,HepG2,1 µM
CC1(C)SSC(=O)C1(C)O (stereo unspecified),Activity,[1],0.21
same,Activity,[2],1.32
same,Activity,[3],0.32
same,Activity,[4],100%
same,Activity,[5],0.21
same,Activity,[6],0.17
same,Activity,[7],73.1%
same,Activity,[8],0.3
same,Activity,[9],18.2%
same,Activity,[10],19%
same,Activity,[11],19.3%
same,Activity,[12],0.2
same,Activity,[13],25.9%
same,Activity,[14],15.5%
same,Activity,[15],0.21
same,Activity,[16],27.5%
same,Activity,[17],100%
same,Activity,[18],19%
CC1(O)C(=O)S[S+]([O-])C1(C)C (stereo unspecified),Activity,[2],2.58
same,Activity,[7],92.5%
O=c1ssc2ccccc12,Activity,[2],0.4
same,Activity,[7],33.1%
N[C@@H](Cc1ccc(N(CCCl)CCCl)cc1)C(=O)O [MELPHALAN],GI50,HepG2,17 µM
